We go through eight molecules from ChEMBL document CHEMBL1141916, “Synthesis and anticonvulsant activity of new 2-substituted-5-(2-benzyloxyphenyl)-1,3,4-oxadiazoles” (Bioorg Med Chem Lett, 2005).

Series [1] is filed under the species Mus musculus. Kind of series: Effective dose against pentylenetetrazole (PTZ) induced anticonvulsant activity in mice. It counts as functional.
For series [2], the species on record is Mus musculus. Kind of series: Effective dose against maximal electroshock (MES) induced convulsants in mice. Format: functional.
Series [3] is described as follows: Lethal dose tested against mice. It counts as toxicity. As to conditions: mouse, in vivo.
Series [4] deals with Mus musculus. Put plainly: Effective dose against pentylenetetrazole (PTZ) induced anticonvulsant activity in presence of flumazenil at 10 mg/kg in mice; range: 1.5-4.1. Format: functional.
Series [5] is filed under the species Mus musculus. Kind of series: animal or person.
The species entered for series [6] is Mus musculus. Kind of series: animal or person. This is another data set of the same source.
Description: Effective dose against pentylenetetrazole (PTZ) induced anticonvulsant activity in presence of flumazenil at 10 mg/kg in mice; Range: 1.1-2

One may read the ED50 as the dose at which the effect has come halfway, by size or by number of responders. By LD50 is commonly meant the dose expected to kill half of the subjects tested. The low end stands for a more toxic substance, the high end for a less toxic substance. With `CSc1nnc(-c2ccccc2OCc2ccccc2)o1`, the values for the ED50 in the series listed under Mus musculus [1] and in the series filed under Mus musculus [2] were 91.2 mg/kg and > 100 mg/kg, respectively. Also, the LD50 in series [3] is > 300 mg/kg.

Take `Sc1nnc(-c2ccccc2OCc2ccccc2)o1`: the ED50 in the series filed under Mus musculus [1] was > 100 mg/kg; in the series filed under Mus musculus [2], ≥ 100 mg/kg. Also, in series [3], the LD50 is > 300 mg/kg.

On to `c1ccc(COc2ccccc2-c2nnc(SCc3ccccc3)o2)cc1`, for which the ED50 in the series listed under Mus musculus [1] and in the series filed under Mus musculus [2] was > 100 mg/kg in each case. Moreover, in series [3], the LD50 is > 300 mg/kg.

Consider `Nc1nnc(-c2ccccc2OCc2ccccc2)o1`, for which the ED50 in the series filed under Mus musculus [1] was determined as 85.2 mg/kg; in the series filed under Mus musculus [2], 63.2 mg/kg. In addition, in series [3], the LD50 is > 300 mg/kg.

Regarding `Nc1nnc(-c2ccccc2OCc2ccc(F)cc2)o1`, the ED50 came to 2.5 mg/kg in the series filed under Mus musculus [1], 2.5 mg/kg with Mus musculus [4] and 3.3 mg/kg in the series filed under Mus musculus [2]. Also, in series [3], the LD50 was > 300 mg/kg.

On to `Nc1nnc(-c2ccccc2OCc2ccc(Cl)cc2)o1`, for which the ED50 in the series filed under Mus musculus [1] and in the series filed under Mus musculus [2] was > 100 mg/kg in each case. Besides, in series [3], the LD50 is > 300 mg/kg.

Take `CCSc1nnc(-c2ccccc2OCc2ccccc2)o1`: the ED50 in the series filed under Mus musculus [1] and in the series filed under Mus musculus [2] was > 100 mg/kg throughout. For the same molecule, the LD50 in series [3] was > 300 mg/kg.

On to `CN1C(=O)CN=C(c2ccccc2)c2cc(Cl)ccc21` [DIAZEPAM], for which the ED50 in the series listed under Mus musculus [1] was 1.4 mg/kg; in the series filed under Mus musculus [2], 1.8 mg/kg; in the series listed under Mus musculus [5], 2.6 mg/kg; in the series listed under Mus musculus [6], 2 mg/kg.
